Measured values: US10968260B2, “Curcumin-peptide conjugates and formulations thereof” (HAUS BIOCEUTICALS, INC., priority 2014, dated 2021)

Columns and labels:
[1] = system: advanced Alzheimer's disease; assay: Clinical case study: Alzheimer's disease (Example 5); format: in vivo, human; conditions: Case 20, 1.2 g curcumin bid, after 30 days
Text: A person was presented with advanced Alzheimer's disease. Prior to dosing, they failed all short term memory questions on a test. […] They have continued to have lasting benefit from the therapy.

[2] = set-up: species or system mice; conditions: mouse, in vivo
Procedure: Mice weighed ˜25 g each. Blood was drawn every 30 minutes for 180 total minutes.

absorbability / bioavailability [2]: very poor absorbability
Structure (SMILES): COc1cc(C=CC(=O)CC(=O)C=Cc2ccc(O)c(OC)c2)ccc1O [curcumin, 1,7-bis[4-hydroxy-3-methoxyphenyl]-1,6-heptadiene-3,5-dione]
short term memory questions on a test, advanced Alzheimer's disease [1]: passed all short term memory questions
